Reference: patent US5741671A, “Isolation cloning and expression of transmembrane water channel aquaporin 1(AQP1)” (The Johns Hopkins University, priority 1995, dated 1998)

Tests used:
[1] = Stopped-flow osmotic water permeability of control liposomes; type: biochemical; conditions: mercurial reagent 1 mM
Method: Purified AQP1 was stored overnight at 0° C. or frozen for several days at -80° C. prior to reconstitution. Reconstitution into proteoliposomes was carried out in a final volume of 1 ml containing 60-90 μg of purified AQP1 protein in chromatography buffer, 9 mg of bath-sonicated E. coli phospholipid, 1.25% (w/v) octyl glucoside, and 50 mM Tris-HCl (pH 7.5). The mixture was briefly blended on a vortex mixer and incubated for 20 minutes on ice. […] Protein and phospholipid were measured as described by Ambudkar & Maloney (J. Biol. Chem., 1986, 261:10079-10086).
Permeability measurements. Membrane permeability measurements (Pf) were measured by exposing AQP1 proteoliposomes or control liposomes to an osmotic gradient by rapid mixing with an equal volume of another solution containing buffer A plus sufficient sucrose to increase osmolality in the mixed solutions to a value 120% of that in the original solution. This was performed with a stopped-flow fluorometer (SF.17MV, Applied Photophysics, Leatherhead, U.K.) with a measured dead time of 0.7 ms. […] Extravesicular carboxyfluorescein fluorescence was completely quenched using anti-fluorescein antibody (Harris et al., 1990, Am. J. Physiol. 259:F366-F371). […]

control-injected oocytes = assay: Xenopus oocyte osmotic swelling assay, control-injected oocytes; type: cell-based, Xenopus laevis; conditions: no RNA injected, 0.3 mM HgCl2, 22° C.
Method: Expression of AQP1 in Xenopus oocytes. Oocytes were removed from female Xenopus laevis frogs and prepared as described by Dascal (CRC Crit. Rev. Biochem., 1987, 22:317-373). Oocytes were injected with 0.05 microliters of water (control) or the same volume of water containing 1-10 nanograms of AQP1 RNA. The oocytes were incubated for up to 96 hours at 18° C. in modified Barth's buffer (88 mM NaCl, 1 mM KCl, 0.8 mM MgSO4, 0.3 mM Ca(NO3)2, 0.4 mM CaCl2, 2.4 mm NaHCO3, 10 mM HEPES, pH=7.4, total osmolality=200 mOsm/kg) also containing antibiotics. The whole oocytes were then removed and total cellular protein was dissolved in 40 microliters of buffer containing 1% (w/v) SDS and analyzed by immunoblot (Towbin et al., 1979, Proc. Natl. Acad. Sci. USA 76:4350-4354).
A swelling assay was adapted from that of published work (Fischbarg et al., 1990, Proc. Natl. Acad. Sci. USA 87:3244-3247; Zhang et al., 1990, J. Biol. Chem. 265: 15375-15378). […] Swelling was monitored with a Nikon phase-contrast microscope equipped for videorecording. The longest (D1) and shortest (D2) diameters of the oocytes were measured at 15- to 30-second intervals. Oocyte volumes (V) at each time point were calculated relative to volume at the initial observation (Vo): […]

SMILES: [Cl][Hg][Cl] [HgCl2]
- effect on the Pf of control liposomes [1]: Neither pCMBS nor HgCl2 had any effect
- Pf (osmotic water permeability) (control-injected oocytes): 20.3 cm/s x 10^-4
